Test results from patent US10004701B2, “Methods and compositions for treating infection” (UNIVERSITY OF ROCHESTER, priority 2012, dated 2018).
Structures can show the parent of a compound that is named as a salt. Where two headings read alike, the source gives them in different places.

Assays:
Experiment in all cases: AK assay 384-well format, Prestwick library screening
[1] = test system: E. cloacae; type: cell-based, Enterobacter cloacae; settings: for fold induction at 50 µM: Enterobacter cloacae, 3 h
[2] = test system: K. pneumoniae; type: cell-based, Klebsiella pneumoniae; settings: for fold induction at 50 µM: Klebsiella pneumoniae, 3 h
[3] = test system: S. aureus strain USA300-0114; type: cell-based, Staphylococcus aureus; settings: for fold induction at 50 µM: Staphylococcus aureus, USA300, 3 h
[4] = test system: P. aeruginosa; type: cell-based, Pseudomonas aeruginosa; settings: for fold induction at 50 µM: Pseudomonas aeruginosa, 3 h
[5] = test system: E. faecium; type: cell-based, Enterococcus faecium; settings: for fold induction at 50 µM: Enterococcus faecium, 3 h
[6] = test system: E. coli; type: cell-based, Escherichia coli; settings: 50 μM final drug concentration; for fold induction at 50 µM: Escherichia coli, 3 h
[7] = test system: A. baumannii strain 98-37-09; type: cell-based, Acinetobacter baumannii; settings: for fold induction at 50 µM: Acinetobacter baumannii, 983709, 3 h
[8] = planktonic E. cloacae, 50 μM final drug concentration, cutoff for positive-scoring molecules 3-fold increase, read-out: AK-based Prestwick Library Screening Results, E. cloacae (increase in extracellular AK activity)
[9] = planktonic K. pneumoniae, 50 μM final drug concentration, cutoff for positive-scoring molecules 3-fold increase, read-out: AK-based Prestwick Library Screening Results, K. pneumoniae (increase in extracellular AK activity)
[10] = planktonic S. aureus, 50 μM final drug concentration, cutoff for positive-scoring molecules 3-fold increase, read-out: AK-based Prestwick Library Screening Results, S. aureus (increase in extracellular AK activity)
[11] = planktonic P. aeruginosa, 50 μM final drug concentration, cutoff for positive-scoring molecules 3-fold increase, read-out: AK-based Prestwick Library Screening Results, P. aeruginosa (increase in extracellular AK activity)
[12] = planktonic E. faecium, 50 μM final drug concentration, cutoff for positive-scoring molecules 3-fold increase, read-out: AK-based Prestwick Library Screening Results, E. faecium (increase in extracellular AK activity)
[13] = planktonic E. coli, cutoff for positive-scoring molecules 3-fold increase, read-out: AK-based Prestwick Library Screening Results, E. coli (increase in extracellular AK activity)
[14] = planktonic A. baumannii, 50 μM final drug concentration, cutoff for positive-scoring molecules 3-fold increase, read-out: AK-based Prestwick Library Screening Results, A. baumannii (increase in extracellular AK activity)
[15] = 50 μM final drug concentration, 384-well format, cutoff for positive-scoring molecules 3-fold increase, read-out: AK-based Prestwick Library Screening Results, E. cloacae (increase in extracellular AK activity)
[16] = 50 μM final drug concentration, 384-well format, cutoff for positive-scoring molecules 3-fold increase, read-out: AK-based Prestwick Library Screening Results, K. pneumoniae (increase in extracellular AK activity)
[17] = 50 μM final drug concentration, 384-well format, cutoff for positive-scoring molecules 3-fold increase, read-out: AK-based Prestwick Library Screening Results, S. aureus (increase in extracellular AK activity)
[18] = 50 μM final drug concentration, 384-well format, cutoff for positive-scoring molecules 3-fold increase, read-out: AK-based Prestwick Library Screening Results, P. aeruginosa (increase in extracellular AK activity)
[19] = 50 μM final drug concentration, 384-well format, cutoff for positive-scoring molecules 3-fold increase, read-out: AK-based Prestwick Library Screening Results, E. faecium (increase in extracellular AK activity)
[20] = 384-well format, cutoff for positive-scoring molecules 3-fold increase, read-out: AK-based Prestwick Library Screening Results, E. coli (increase in extracellular AK activity)
[21] = 50 μM final drug concentration, 384-well format, cutoff for positive-scoring molecules 3-fold increase, read-out: AK-based Prestwick Library Screening Results, A. baumannii (increase in extracellular AK activity)
[22] = 50 μM final drug concentration, planktonic, cutoff for positive 3-fold increase
[23] = 50 μM final drug concentration, planktonic, cutoff for positive 3-fold increase, read-out: AK-based Prestwick Library Screening Results, E. cloacae (fold increase in extracellular AK activity)
[24] = 50 μM final drug concentration, planktonic, cutoff for positive 3-fold increase, read-out: AK-based Prestwick Library Screening Results, K. pneumoniae (fold increase in extracellular AK activity)
[25] = 50 μM final drug concentration, planktonic, cutoff for positive 3-fold increase, read-out: AK-based Prestwick Library Screening Results, S. aureus (fold increase in extracellular AK activity)
[26] = 50 μM final drug concentration, planktonic, cutoff for positive 3-fold increase, read-out: AK-based Prestwick Library Screening Results, P. aeruginosa (fold increase in extracellular AK activity)
[27] = 50 μM final drug concentration, planktonic, cutoff for positive 3-fold increase, read-out: AK-based Prestwick Library Screening Results, E. faecium (fold increase in extracellular AK activity)
[28] = planktonic, cutoff for positive 3-fold increase, read-out: AK-based Prestwick Library Screening Results, E. coli (fold increase in extracellular AK activity)
[29] = 50 μM final drug concentration, planktonic, cutoff for positive 3-fold increase, read-out: AK-based Prestwick Library Screening Results, A. baumannii (fold increase in extracellular AK activity)

CC(Cc1cccc(C(F)(F)F)c1)NCCOC(=O)c1ccccc1 (stereo not shown) [Benfluorex hydrochloride]
fold induction at 50 µM [1, 8]: 1.4
fold induction at 50 µM [2, 9]: 1.1
fold induction at 50 µM [3, 10]: 1.2
fold induction at 50 µM [4, 11]: 1.1
fold induction at 50 µM [5, 12]: 0.9
fold induction at 50 µM [6, 13]: 1.4
fold induction at 50 µM [7, 14]: 1

CCN1CCCC(OC(=O)C(c2ccccc2)c2ccccc2)C1 (stereo not shown) [Piperidolate hydrochloride]
fold induction at 50 µM ([1]; read-out: AK-based Prestwick library screening result, E. cloacae (fold increase in extracellular AK activity)): 0.7
fold induction at 50 µM ([2]; read-out: AK-based Prestwick library screening result, K. pneumoniae (fold increase in extracellular AK activity)): 0.6
fold induction at 50 µM ([3]; read-out: AK-based Prestwick library screening result, S. aureus (fold increase in extracellular AK activity)): 0.6
fold induction at 50 µM ([4]; read-out: AK-based Prestwick library screening result, P. aeruginosa (fold increase in extracellular AK activity)): 0.7
fold induction at 50 µM ([5]; read-out: AK-based Prestwick library screening result, E. faecium (fold increase in extracellular AK activity)): 1
fold induction at 50 µM ([6]; planktonic E. coli, positive cutoff 3-fold increase, read-out: AK-based Prestwick library screening result, E. coli (fold increase in extracellular AK activity)): 0.7
fold induction at 50 µM ([7]; read-out: AK-based Prestwick library screening result, A. baumannii (fold increase in extracellular AK activity)): 0.6

CC[C@@H](CO)NCCN[C@@H](CC)CO [Ethambutol dihydrochloride]
fold induction at 50 µM [1, 15]: 1.1
fold induction at 50 µM [2, 16]: 0.7
fold induction at 50 µM [3, 17]: 0.6
fold induction at 50 µM [4, 18]: 0.7
fold induction at 50 µM [5, 19]: 0.9
fold induction at 50 µM [6, 20]: 0.9
fold induction at 50 µM [7, 21]: 0.8

C[n+]1cccc(C(=O)[O-])c1 [Trigonelline]
fold induction at 50 µM [1, 8]: 1.2
fold induction at 50 µM [2, 9]: 0.7
fold induction at 50 µM [3, 10]: 0.8
fold induction at 50 µM [4, 11]: 0.8
fold induction at 50 µM [5, 12]: 0.9
fold induction at 50 µM [6, 13]: 0.9
fold induction at 50 µM [7, 14]: 0.9

CN(C)C(=O)Oc1cccc([N+](C)(C)C)c1 [Neostigmine bromide]
fold induction at 50 µM ([1]; 50 μM final drug concentration, planktonic, […], read-out: AK-based Prestwick Library Screening Results, E. cloacae (fold increase in extracellular AK activity)): 1.2
fold induction at 50 µM ([2]; 50 μM final drug concentration, planktonic, […], read-out: AK-based Prestwick Library Screening Results, K. pneumoniae (fold increase in extracellular AK activity)): 1
fold induction at 50 µM ([3]; 50 μM final drug concentration, planktonic, […], read-out: AK-based Prestwick Library Screening Results, S. aureus (fold increase in extracellular AK activity)): 1.2
fold induction at 50 µM ([4]; 50 μM final drug concentration, planktonic, […], read-out: AK-based Prestwick Library Screening Results, P. aeruginosa (fold increase in extracellular AK activity)): 1.1
fold induction at 50 µM ([5]; 50 μM final drug concentration, planktonic, […], read-out: AK-based Prestwick Library Screening Results, E. faecium (fold increase in extracellular AK activity)): 1
fold induction at 50 µM ([6]; planktonic, […], read-out: AK-based Prestwick Library Screening Results, E. coli (fold increase in extracellular AK activity)): 1.3
fold induction at 50 µM ([7]; 50 μM final drug concentration, planktonic, […], read-out: AK-based Prestwick Library Screening Results, A. baumannii (fold increase in extracellular AK activity)): 1.3

CC(O)Cn1cnc2c1c(=O)n(C)c(=O)n2C (stereo not shown) [Proxyphylline]
fold induction at 50 µM ([1]; 50 μM final drug concentration, planktonic, cutoff for positive-scoring molecules 3-fold increase, read-out: AK-based Prestwick Library Screening Results, E. cloacae (fold increase in extracellular AK activity)): 0.5
fold induction at 50 µM ([2]; 50 μM final drug concentration, planktonic, cutoff for positive-scoring molecules 3-fold increase, read-out: AK-based Prestwick Library Screening Results, K. pneumoniae (fold increase in extracellular AK activity)): 0.5
fold induction at 50 µM ([3]; 50 μM final drug concentration, planktonic, cutoff for positive-scoring molecules 3-fold increase, read-out: AK-based Prestwick Library Screening Results, S. aureus (fold increase in extracellular AK activity)): 0.5
fold induction at 50 µM ([4]; 50 μM final drug concentration, planktonic, cutoff for positive-scoring molecules 3-fold increase, read-out: AK-based Prestwick Library Screening Results, P. aeruginosa (fold increase in extracellular AK activity)): 0.5
fold induction at 50 µM ([5]; 50 μM final drug concentration, planktonic, cutoff for positive-scoring molecules 3-fold increase, read-out: AK-based Prestwick Library Screening Results, E. faecium (fold increase in extracellular AK activity)): 0.9
fold induction at 50 µM ([6]; planktonic, cutoff for positive-scoring molecules 3-fold increase, read-out: AK-based Prestwick Library Screening Results, E. coli (fold increase in extracellular AK activity)): 0.5
fold induction at 50 µM ([7]; 50 μM final drug concentration, planktonic, cutoff for positive-scoring molecules 3-fold increase, read-out: AK-based Prestwick Library Screening Results, A. baumannii (fold increase in extracellular AK activity)): 0.6

C=C(CC)C(=O)c1ccc(OCC(=O)O)c(Cl)c1Cl [Ethacrynic acid]
fold induction at 50 µM [1, 15]: 0.8
fold induction at 50 µM [2, 16]: 0.6
fold induction at 50 µM [3, 17]: 1.4
fold induction at 50 µM [4, 18]: 0.7
fold induction at 50 µM [5, 19]: 1.3
fold induction at 50 µM [6, 20]: 0.7
fold induction at 50 µM [7, 21]: 0.8

CN1CCCN=C1/C=C/c1cccc(O)c1.O=C(O)c1cc2ccccc2c(Cc2c(O)c(C(=O)O)cc3ccccc23)c1O [Oxantel pamoate]
AK-based Prestwick Library Screening Results, E. cloacae (fold increase in extracellular AK activity) [1, 22]: 1.8
AK-based Prestwick Library Screening Results, K. pneumoniae (fold increase in extracellular AK activity) [2, 22]: 1.0
AK-based Prestwick Library Screening Results, S. aureus (fold increase in extracellular AK activity) [3, 22]: 1.3
AK-based Prestwick Library Screening Results, P. aeruginosa (fold increase in extracellular AK activity) [4, 22]: 1.0
AK-based Prestwick Library Screening Results, E. faecium (fold increase in extracellular AK activity) [5, 22]: 1.0
AK-based Prestwick Library Screening Results, E. coli (fold increase in extracellular AK activity) ([6]; planktonic, cutoff for positive 3-fold increase): 1.1
AK-based Prestwick Library Screening Results, A. baumannii (fold increase in extracellular AK activity) [7, 22]: 1.1

CCOc1ccc(NC(C)=O)cc1 [Phenacetin]
fold induction at 50 µM [1, 23]: 1.4
fold induction at 50 µM [2, 24]: 0.9
fold induction at 50 µM [3, 25]: 0.8
fold induction at 50 µM [4, 26]: 0.9
fold induction at 50 µM [5, 27]: 0.9
fold induction at 50 µM [6, 28]: 1.2
fold induction at 50 µM [7, 29]: 1.1

NC[C@H]1O[C@H](O[C@H]2[C@H](O)[C@@H](O[C@H]3O[C@H](CO)[C@@H](O)[C@H](N)[C@H]3O)[C@H](N)C[C@@H]2N)[C@H](N)C[C@@H]1O [Tobramycin]
fold induction at 50 µM [1, 23]: 1.5
fold induction at 50 µM [2, 24]: 2
fold induction at 50 µM [3, 25]: 1.1
fold induction at 50 µM [4, 26]: 17.1
fold induction at 50 µM [5, 27]: 0.9
fold induction at 50 µM [6, 28]: 7.5
fold induction at 50 µM [7, 29]: 5.7
